The results in this text go back to patent publication US7928140B2, “Benzothiazole PI3 kinase modulators for cancer treatment” (Amgen Inc., priority 2007, dated 2011).

Structures are written as SMILES.

The target in one test is T1, PI3K β (Homo sapiens, UniProt P42338).
T1 construct: Full length p110 subunits of PI3K α, β and δ, N-terminally labeled with polyHis tag; polyHis (N); made in house; host or cells: Sf9 insect cells (baculovirus)
Description: In vitro PI3 kinase enzyme assay (beta), ATP loss, bioluminescence.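 Further: purified p110β/p85 heterodimer with PtdIns(4,5)P2 as acceptor, incubated at room temperature, leftover ATP read by luminescence, inhibition scaled to compound-free wells with and without enzyme.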 The test is classed as biochemical. The conditions noted are these: read-out: PI3Kβ ATP loss IC50.

For another test, the target named is T2, PI3K α (Homo sapiens, UniProt P42336).
T2 construct: Full length p110 subunits of PI3K α, β and δ, N-terminally labeled with polyHis tag; polyHis (N); made in house; host or cells: Sf9 insect cells (baculovirus)
Description: In vitro PI3 kinase enzyme assay (alpha), ATP loss, bioluminescence.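 Further: purified p110α/p85 heterodimer acting on PtdIns(4,5)P2 at room temperature, remaining ATP read by luminescence, inhibition scaled between compound-free wells with and without enzyme.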 The test is classed as biochemical. The following applies: read-out: PI3Kα ATP loss IC50.

T1 sequence (P42338 whole entry): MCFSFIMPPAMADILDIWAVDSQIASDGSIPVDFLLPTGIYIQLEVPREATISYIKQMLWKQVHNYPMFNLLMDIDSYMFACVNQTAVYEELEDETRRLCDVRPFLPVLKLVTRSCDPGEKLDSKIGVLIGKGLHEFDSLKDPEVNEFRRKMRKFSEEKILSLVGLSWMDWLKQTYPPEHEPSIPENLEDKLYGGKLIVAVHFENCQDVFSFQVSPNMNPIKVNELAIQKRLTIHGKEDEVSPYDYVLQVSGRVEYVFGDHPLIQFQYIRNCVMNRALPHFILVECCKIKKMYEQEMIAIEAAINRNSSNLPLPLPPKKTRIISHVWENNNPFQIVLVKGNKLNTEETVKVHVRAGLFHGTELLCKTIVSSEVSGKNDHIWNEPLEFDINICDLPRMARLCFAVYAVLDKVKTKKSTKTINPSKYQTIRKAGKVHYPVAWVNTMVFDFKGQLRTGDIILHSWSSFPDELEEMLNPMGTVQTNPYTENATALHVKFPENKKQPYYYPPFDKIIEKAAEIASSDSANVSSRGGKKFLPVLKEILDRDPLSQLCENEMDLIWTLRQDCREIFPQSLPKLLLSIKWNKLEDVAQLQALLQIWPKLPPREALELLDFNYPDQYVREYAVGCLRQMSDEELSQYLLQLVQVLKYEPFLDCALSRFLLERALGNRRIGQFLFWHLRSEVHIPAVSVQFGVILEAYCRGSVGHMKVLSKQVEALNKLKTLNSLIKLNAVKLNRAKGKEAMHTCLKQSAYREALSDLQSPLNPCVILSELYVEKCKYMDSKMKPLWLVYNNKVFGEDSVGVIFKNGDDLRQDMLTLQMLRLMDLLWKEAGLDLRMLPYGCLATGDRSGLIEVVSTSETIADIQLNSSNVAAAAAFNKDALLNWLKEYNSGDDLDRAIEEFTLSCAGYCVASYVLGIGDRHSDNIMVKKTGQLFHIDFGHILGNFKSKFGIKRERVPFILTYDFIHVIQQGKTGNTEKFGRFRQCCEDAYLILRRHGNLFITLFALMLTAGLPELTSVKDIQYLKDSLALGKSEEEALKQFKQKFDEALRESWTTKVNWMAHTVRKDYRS
T1 sequence (P27986 whole entry partner): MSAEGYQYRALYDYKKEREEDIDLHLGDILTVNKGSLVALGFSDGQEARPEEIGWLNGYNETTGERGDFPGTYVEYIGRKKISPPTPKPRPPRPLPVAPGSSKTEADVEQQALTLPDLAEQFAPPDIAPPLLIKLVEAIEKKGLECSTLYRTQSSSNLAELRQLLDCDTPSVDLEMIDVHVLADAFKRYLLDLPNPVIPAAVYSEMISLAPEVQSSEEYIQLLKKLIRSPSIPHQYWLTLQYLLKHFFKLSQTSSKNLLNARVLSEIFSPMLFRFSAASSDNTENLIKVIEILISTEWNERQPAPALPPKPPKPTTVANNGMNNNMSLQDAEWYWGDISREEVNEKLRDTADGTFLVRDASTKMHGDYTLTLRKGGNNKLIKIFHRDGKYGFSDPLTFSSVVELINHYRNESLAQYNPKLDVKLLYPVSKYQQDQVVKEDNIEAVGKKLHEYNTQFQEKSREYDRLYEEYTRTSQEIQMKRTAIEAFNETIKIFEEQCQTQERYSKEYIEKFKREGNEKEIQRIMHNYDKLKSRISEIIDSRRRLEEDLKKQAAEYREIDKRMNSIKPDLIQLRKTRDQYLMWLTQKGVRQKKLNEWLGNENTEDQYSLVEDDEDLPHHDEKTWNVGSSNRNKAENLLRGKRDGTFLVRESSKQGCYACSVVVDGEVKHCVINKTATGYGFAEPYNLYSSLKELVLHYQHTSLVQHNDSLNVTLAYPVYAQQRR
T2 sequence (P42336 whole entry, species assumed): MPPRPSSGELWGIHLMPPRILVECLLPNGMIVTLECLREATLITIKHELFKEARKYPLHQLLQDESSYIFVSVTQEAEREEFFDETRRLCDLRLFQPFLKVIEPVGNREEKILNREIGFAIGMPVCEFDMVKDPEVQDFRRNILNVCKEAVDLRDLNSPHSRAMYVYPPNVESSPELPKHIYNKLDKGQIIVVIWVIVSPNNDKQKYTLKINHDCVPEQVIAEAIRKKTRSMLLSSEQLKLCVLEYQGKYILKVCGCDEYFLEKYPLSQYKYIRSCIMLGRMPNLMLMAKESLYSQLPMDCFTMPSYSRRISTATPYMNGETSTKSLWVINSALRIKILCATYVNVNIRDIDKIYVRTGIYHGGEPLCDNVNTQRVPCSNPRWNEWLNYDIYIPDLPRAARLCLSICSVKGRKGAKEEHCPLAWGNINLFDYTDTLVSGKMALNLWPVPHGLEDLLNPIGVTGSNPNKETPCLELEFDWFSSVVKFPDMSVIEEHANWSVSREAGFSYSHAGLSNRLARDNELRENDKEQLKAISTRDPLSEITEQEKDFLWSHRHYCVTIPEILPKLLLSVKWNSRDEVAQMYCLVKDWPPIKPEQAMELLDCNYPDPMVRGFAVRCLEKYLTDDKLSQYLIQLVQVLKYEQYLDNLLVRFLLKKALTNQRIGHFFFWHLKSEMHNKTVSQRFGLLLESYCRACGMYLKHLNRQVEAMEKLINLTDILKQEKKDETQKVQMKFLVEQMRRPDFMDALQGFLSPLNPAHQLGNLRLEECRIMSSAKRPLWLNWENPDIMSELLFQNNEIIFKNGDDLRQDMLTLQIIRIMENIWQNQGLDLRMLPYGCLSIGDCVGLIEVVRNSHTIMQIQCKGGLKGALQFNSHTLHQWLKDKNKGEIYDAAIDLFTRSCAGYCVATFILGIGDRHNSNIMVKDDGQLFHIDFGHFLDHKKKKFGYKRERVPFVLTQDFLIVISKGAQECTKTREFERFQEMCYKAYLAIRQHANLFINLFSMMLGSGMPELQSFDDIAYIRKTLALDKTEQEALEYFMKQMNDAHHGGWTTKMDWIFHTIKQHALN
T2 sequence (P27986 whole entry partner, species assumed): as the sequence (P27986 whole entry partner) above

In the case of `CC(=O)Nc1nc2ccc(-c3ccnc(SCc4ccccc4C)n3)cc2s1` [Example 37, N-(6-(2-((2-methylbenzyl)sulfanyl)-4-pyrimidinyl)-1,3-benzothiazol-2-yl)acetamide], the half-inhibitory concentration (IC50) (usually the concentration that inhibits the measured activity by half) is 4120 nM on PI3K β and 119 nM on PI3K α.

With `CCC(=O)Nc1nc2ccc(-c3ccnc(OCc4ccccc4)n3)cc2s1` [Example 57, N-(6-(2-(benzyloxy)-4-pyrimidinyl)-1,3-benzothiazol-2-yl)propanamide], the IC50 on PI3K β was 8830 nM; on PI3K α it was 277 nM.

As to `CC(=O)Nc1nc2ccc(-c3cncc(OCCN4CCCCCC4)c3)cc2s1` [Example 234, N-(6-(5-(2-(azepan-1-yl)ethoxy)pyridin-3-yl)benzo[d]thiazol-2-yl)acetamide], the values for the IC50 on PI3K β and at PI3K α were 9980 nM and 2490 nM, respectively.

Take `CC(=O)Nc1nc2ccc(-c3ccnc(OCCCO)n3)cc2s1` [Example 102, N-(6-(2-(3-hydroxypropoxy)-4-pyrimidinyl)-1,3-benzothiazol-2-yl)acetamide]: the IC50 is above 40000 nM at PI3K β and 664 nM on PI3K α.

With `Nc1nc2ccc(-c3cccc(NS(=O)(=O)c4ccccc4)n3)cc2s1` [Example 71, N-(6-(2-Aminobenzo[d]thiazol-6-yl)pyridin-2-yl)benzenesulfonamide], the IC50 on PI3K β came out at 1440 nM; at PI3K α it was 3830 nM.

Turning to `CC(=O)Nc1nc2ccc(-c3cnc(OCCCN(C)C)c(NC(C)C)c3)cc2s1` [Example 153, N-(6-(6-(3-(dimethylamino)propoxy)-5-((1-methylethyl)amino)-3-pyridinyl)-1,3-benzothiazol-2-yl)acetamide], the results for the IC50 at PI3K β and on PI3K α were 1840 nM and 284 nM, respectively.

Turning to `O=C(CN1CCOCC1)Nc1nc2ccc(-c3ccnc(OCc4ccccc4)n3)cc2s1` [Example 54, N-(6-(2-(benzyloxy)-4-pyrimidinyl)-1,3-benzothiazol-2-yl)-2-(4-morpholinyl)acetamide], the half-inhibitory concentration (IC50) at PI3K β was above 40000 nM; at PI3K α, 7330 nM.

Turning to `CC(=O)Nc1nc2ccc(-c3cnccc3CO)cc2s1` [Example 251, N-(6-(4-(hydroxymethyl)pyridin-3-yl)benzo[d]thiazol-2-yl)acetamide], the values for the IC50 at PI3K β and on PI3K α were above 40000 nM and 1910 nM, respectively.

With `CCOc1ccc(-c2ccc3nc(NC(C)=O)sc3c2)cn1` [Example 243, N-(6-(6-ethoxypyridin-3-yl)benzo[d]thiazol-2-yl)acetamide], the IC50 at PI3K β was above 40000 nM; at PI3K α, 156 nM.

Consider `COc1ccc(S(=O)(=O)Nc2cc(-c3ccc4nc(NCC5CCCCC5)sc4c3)cnc2Cl)cc1` [Example 306, N-(2-chloro-5-(2-((cyclohexylmethyl)amino)-1,3-benzothiazol-6-yl)-3-pyridinyl)-4-methoxybenzenesulfonamide], for which the IC50 at PI3K β worked out at 411 nM; on PI3K α, 104 nM.

Consider `COc1cc(Cl)ncc1-c1ccc2nc(NC(C)=O)sc2c1` [Example 246, N-(6-(6-chloro-4-methoxypyridin-3-yl)benzo[d]thiazol-2-yl)acetamide], for which the IC50 on PI3K β was 12400 nM; on PI3K α, 256 nM.

As for `COc1ccccc1S(=O)(=O)c1cccc(-c2ccc3nc(NC(C)=O)sc3c2)n1` [Example 70, N-(6-(6-((2-methoxyphenyl)sulfonyl)-2-pyridinyl)-1,3-benzothiazol-2-yl)acetamide], the IC50 came out at 1540 nM at PI3K β and 285 nM on PI3K α.

Turning to `COc1ccc(OC)c(Sc2nccc(-c3ccc4nc(NC(C)=O)sc4c3)n2)c1` [Example 158, N-(6-(2-((2,5-dimethoxyphenyl)sulfanyl)-4-pyrimidinyl)-1,3-benzothiazol-2-yl)acetamide], the concentration for half-maximal inhibition (IC50) on PI3K β is 426 nM; on PI3K α, 831 nM.

Consider `CC(=O)Nc1nc2ccc(-c3ccc(OC(F)F)nc3)cc2s1` [Example 249, N-(6-(6-(difluoromethoxy)pyridin-3-yl)benzo[d]thiazol-2-yl)acetamide], for which the values for the IC50 at PI3K β and on PI3K α were 8110 nM and 717 nM, respectively.

Consider `CC(=O)Nc1ccc(Sc2nccc(-c3ccc4nc(NC(C)=O)sc4c3)n2)cc1` [Example 29, N-(4-((4-(2-(acetylamino)-1,3-benzothiazol-6-yl)-2-pyrimidinyl)sulfanyl)phenyl)acetamide], for which the IC50 was determined as 2400 nM at PI3K β and 333 nM at PI3K α.

Turning to `CN(C)c1cc(-c2ccc3nc(NC(=O)NCCN4CCOCC4)sc3c2)cnc1Cl` [Example 273, 1-(6-(6-chloro-5-(dimethylamino)pyridin-3-yl)benzo[d]thiazol-2-yl)-3-(2-morpholinoethyl)urea], the IC50 came out at 2070 nM on PI3K β and 115 nM on PI3K α.

As to `CC(=O)Nc1nc2ccc(-c3cncc(N(C)S(=O)(=O)c4ccc(F)cc4)c3)cc2s1` [Example 219, N-(6-(5-(4-fluoro-N-methylphenylsulfonamido)pyridin-3-yl)benzo[d]thiazol-2-yl)acetamide], the IC50 on PI3K β was 2930 nM; on PI3K α it was 375 nM.

`CC(=O)Nc1nc2ccc(-c3ccnc(OCCN(C)C)n3)cc2s1` [Example 9]: the IC50 at PI3K β was above 40000 nM; on PI3K α, 6070 nM.

Take `CC(=O)Nc1nc2ccc(-c3cnc(OC(F)F)cc3C)cc2s1` [Example 250, N-(6-(6-(difluoromethoxy)-4-methylpyridin-3-yl)benzo[d]thiazol-2-yl)acetamide]: the IC50 at PI3K β turned out to be 27500 nM; on PI3K α, 11900 nM.

Take `CC(=O)Nc1nc2ccc(-c3ccnc(N(C)S(=O)(=O)c4cccc5cnccc45)n3)cc2s1` [Example 208, N-(6-(2-(N-methylisoquinoline-5-sulfonamido)pyrimidin-4-yl)benzo[d]thiazol-2-yl)acetamide]: the IC50 on PI3K β was 743 nM; on PI3K α, 462 nM.

As to `CC(=O)Nc1nc2ccc(-c3ccnc(N(C)C)n3)cc2s1` [Example 52, N-(6-(2-(dimethylamino)-4-pyrimidinyl)-1,3-benzothiazol-2-yl)acetamide], the figures for the IC50 at PI3K β and at PI3K α were above 40000 nM and 2580 nM, respectively.

Consider `CC(=O)Nc1nc2ccc(-c3ccnc(OCCCN4CCOC4=O)n3)cc2s1` [Example 32, N-(6-(2-(3-(2-oxo-1,3-oxazolidin-3-yl)propoxy)-4-pyrimidinyl)-1,3-benzothiazol-2-yl)acetamide], for which the IC50 at PI3K β is above 40000 nM; at PI3K α, 601 nM.

Turning to `CC(C)(C)OC(=O)Nc1nc2ccc(-c3nnc(N(Cc4ccccc4)S(C)(=O)=O)o3)cc2s1` [Example 170, tert-Butyl 6-(5-(N-benzylmethan-9-ylsulfonamido)-1,3,4-oxadiazol-2-yl)benzo[d]thiazol-2-ylcarbamate], the IC50 on PI3K β stood at 4760 nM; at PI3K α, 3910 nM.

On to `CC(=O)Nc1nc2ccc(-c3ccnc(CCCc4ccccc4)n3)cc2s1` [Example 14, N-(6-(2-(3-phenylpropyl)-4-pyrimidinyl)-1,3-benzothiazol-2-yl)acetamide], for which the IC50 at PI3K β was 10700 nM; at PI3K α, 2750 nM.

On to `CC(=O)Nc1nc2ccc(-c3ccnc(OCCCN(C)C)n3)cc2s1` [Example 8], for which the results for the IC50 on PI3K β and at PI3K α were above 40000 nM and 11100 nM, respectively.

Regarding `CC(=O)Nc1nc2ccc(-c3ccnc(N(C)S(=O)(=O)c4cccc5ccccc45)n3)cc2s1` [Example 207, N-(6-(2-(N-methylnaphthalene-1-sulfonamido)pyrimidin-4-yl)benzo[d]thiazol-2-yl)acetamide], the IC50 on PI3K β worked out at 221 nM; on PI3K α, 126 nM.
